Test results: patent US7964191B2, “Compositions and methods for the treatment of ophthalmic disease” (Allergan, Inc., priority 2006, dated 2011)

Key:
[1] = test system: exudative age related macular degeneration; experiment: Treatment of a patient with exudative age related macular degeneration; type: in vivo, human
Experimental: A patient suffering from exudative age related macular degeneration in the right eye is given a subretinal injection of a biodegradable implant containing 1 μg total of equimolar amounts of oligonucleotide pair 4 (SEQ ID NO: 36 and SEQ ID NO: 37) in a volume of 100 μl. The eye is monitored weekly for 16 weeks.
A patient is diagnosed with exudative age-related macular degeneration.
The patient is given an subconjunctival injection of a solution containing 10 mg of 1,1′-[1,4,phenylene-bis(methylene)]-bis-1,4,8,11-tetraazacyclotetradecane (AMD3100), see Bridger et al., US2004/0209921, incorporated by reference herein) in each eye once every two weeks for 6 months. The patient is monitored bimonthly and visual acuity tested.

[2] = test system: CXCR4 mRNA; experiment: CXCR4 RNA expression in ARPE-19 cells by whole human genome array hybridization; type: cell-based; settings: cells uninduced with t-BH; compared to cells untreated with siRNA or given control siRNA; FIG. 3
Experimental: To isolate RNA from cells, 1 ml Qiazol® (a phenol/guanidinium isothiocyanate-based RNAse inhibitory lysis buffer sold by Qiagen, Inc.) was added to the ARPE-19 cells and the lysates then scraped into 2 ml tubes. 200 μl of chloroform per ml of Qiazol® was then added, the tubes mixed and centrifuged at 12,000×g for 15 minutes at 4° C. The aqueous phase was removed and applied to an RNeasy® mini column (Qiagen), washed and the column eluted with water. Five micrograms of the eluate were used for subsequent RT-PCR reactions. RT-PCR reactions were carried out using the Stratascript® First Strand Synthesis System (Stratagene). The RNA was denatured at 65° C. for 5 minutes, cooled at RT for 10 minutes then incubated at 42° C. for 60 minutes with reverse transcriptase.
A whole human genome DNA oligonucleotide array (Agilent Technnologies, G4112A array) was used to hybridize against RNA samples prepared from ARPE-19 cells treated with t-BH. This 44K slide format contains a collection of 60-mer oligonucleotides with sequences representing over 41 K human genes and transcripts.
RNA labeling was performed using the Low RNA Input Fluorescent Linear Amplification kit (LIK®) from Agilent Technologies (#5184-3523) following the manufacturer's recommendations. Briefly, 200 ng of total RNA from the ARPE-19 cells isolated as described in Example 2 were reverse transcribed in a 20 μL volume using with 1 μL Moloney Murine Leukemia Virus reverse transcriptase (MMLV-RT) and 1.2 μL of T7 promoter primer in 1× First Strand Buffer at 40° C. for 2 hours. From the double-stranded DNA preparation, transcription and direct labeling were prepared in 80 μL at 40° C. for 2 hours using 0.8 μL of T7 RNA polymerase, 0.6 μL inorganic pyrrophosphatase, 2.4 μL of each Cy-dye-CTP at 10 mM (PerkinElmer/NEN Life Sciences Cyanine-3-CTP #NEL580 and Cyanine-5-CTP #NEL581) in 4% PEG solution and 1× Transcription buffer. Cyanine dyes are highly sensitive fluorescent dyes.
Amplified and labeled cRNA was purified on Rneasy® mini columns (Qiagen, Inc.) according to manufacturer's protocol. cRNA was quantified by absorbance at 260 nm, 550 nm and 650 nm. Once labeling is complete, both Cy3 and Cy5 RNA samples are combined and hybridized to the microarray using the Agilent In Situ Hybridization kit (#5184-3568) following Agilent's recommendations.
Briefly 750 ng of cyanine 3-labeled linearly amplified cRNA and 750 ng of cyanine 5-labeled linearly amplified cRNA are combined to 1× control targets, 0.5× fragmentation buffer. This 2× target solution is denaturated at 60° C. for 30 minutes and 1× hybridization buffer in a 500 μL final volume is added to terminate the fragmentation reaction.
The target solution is then dispensed onto the 44K microarray. Incubation time was 17 hours at 60° C. in a hybridization oven with rotation at 4 rpm (Agilent Technologies #G2545A). Washes were performed for 5 minutes in 6×SSPE, 0.005% N-lauroyl sarcosine at room temperature, then for 5 minutes in 0.06×SSPE, 0.005% N-lauroyl sarcosine at room temperature, and finally for 30 seconds in Agilent Stabilization and Drying Solution®. The dried slides were scanned using a microarray scanner.
Total RNA was isolated from the cells (uninduced with t-BH) and the amount of CXCR4 RNA determined by gene array hybridization. The amount of CXCR4 in the naïve cells are standardized as “100%”.

[3] = Example 8, subconjunctival 10 mg each eye every two weeks for 6 months

Compound: c1cc(CN2CCCNCCNCCCNCC2)ccc1CN1CCCNCCNCCCNCC1 [AMD3100, 1,1′-[1,4,phenylene-bis(methylene)]-bis-1,4,8,11-tetraazacyclotetradecane]
- fluorescein angiography: leakage of blood into retinal tissues ([1]; Example 8, end of six-month treatment): no detectable leakage of blood into retinal tissues
- visibly apparent extent of retinal degeneration ([1]; Example 8, end of six-month treatment versus beginning of study): no increase in the visibly apparent extent of retinal degeneration
- increase in visual acuity, left eye [1, 3]: one
- increase in visual acuity, right eye [1, 3]: two

Compound: Pair 2: anti-CXCR4 siRNA, SEQ ID NO: 12 and SEQ ID NO: 13 (chain 1 AACAGUGGAAGAAAGCUAGGGCCUC; chain 2 GAGGCCCUAGCUUUCUUCCACUGUU; listed as RNA, chemistry not given here)
- expression of intact intracellular CXCR4 RNA [2]: reduce the expression of intact intracellular CXCR4 RNA

Compound: Pair 3: anti-CXCR4 siRNA, SEQ ID NO: 14 and SEQ ID NO: 15 (chain 1 CUUGGAGUGUGACAGCUUGGAGAUG; chain 2 CAUCUCCAAGCUGUCACACUCCAAG; listed as RNA, chemistry not given here)
- expression of intact intracellular CXCR4 RNA [2]: reduce the expression of intact intracellular CXCR4 RNA

Compound: Pair 4: anti CXCR4 siRNA, SEQ ID NO: 36 and SEQ ID NO: 37 (chain 1 CCCACCAUCUACUCCAUCAUCUUCU; chain 2 AGAAGAUGAUGGAGUAGAUGGUGGG; listed as RNA, chemistry not given here)
- extent of macular degeneration ([1]; Example 6, end of the 16 week period): no increase in the extent of macular degeneration is observed
- improvement in visual acuity ([1]; Example 6, right eye, subretinal biodegradable implant, 1 μg total, by week 3, maintained for 16 weeks): two
